Assay results published in US8629163B2, “Tetrakis-quaternary ammonium salts and methods for modulating neuronal nicotinic acteylcholine receptors” (University of Kentucky Research Foundation, priority 2007, dated 2014).

Key:
[1] = molecular target: T1, α4β2 neuronal nicotinic acetylcholine receptors (Rattus norvegicus, UniProt P09483+P12390); test: Inhibition of [^3H]nicotine (NIC) binding to rat brain membranes; conditions: % inhibition at 100 nM analog; 3 nM [^3H]NIC; nonspecific 10 μM cytisine; 3-4 independent experiments
T1 construct: The brain tissue was homogenized with a Tekmar Polytron; from tissue; host or cells: rat brain membranes (whole brain without cortex and cerebellum)
T1 sequence (P09483 31-630): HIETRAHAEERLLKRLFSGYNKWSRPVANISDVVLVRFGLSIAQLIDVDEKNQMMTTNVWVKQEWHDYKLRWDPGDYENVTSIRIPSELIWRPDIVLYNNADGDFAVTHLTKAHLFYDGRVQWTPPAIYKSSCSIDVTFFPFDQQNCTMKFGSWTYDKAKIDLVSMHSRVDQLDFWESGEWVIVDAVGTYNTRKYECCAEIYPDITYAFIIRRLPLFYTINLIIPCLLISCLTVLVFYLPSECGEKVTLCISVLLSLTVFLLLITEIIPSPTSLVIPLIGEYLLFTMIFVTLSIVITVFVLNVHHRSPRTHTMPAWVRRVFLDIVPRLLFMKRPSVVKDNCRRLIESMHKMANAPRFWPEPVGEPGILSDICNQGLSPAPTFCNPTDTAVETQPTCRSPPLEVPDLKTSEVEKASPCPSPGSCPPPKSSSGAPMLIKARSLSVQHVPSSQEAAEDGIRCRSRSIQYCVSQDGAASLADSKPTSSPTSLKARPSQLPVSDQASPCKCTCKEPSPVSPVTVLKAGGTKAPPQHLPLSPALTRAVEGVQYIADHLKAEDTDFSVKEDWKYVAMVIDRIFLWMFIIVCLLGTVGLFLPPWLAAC
T1 sequence (P12390 25-500): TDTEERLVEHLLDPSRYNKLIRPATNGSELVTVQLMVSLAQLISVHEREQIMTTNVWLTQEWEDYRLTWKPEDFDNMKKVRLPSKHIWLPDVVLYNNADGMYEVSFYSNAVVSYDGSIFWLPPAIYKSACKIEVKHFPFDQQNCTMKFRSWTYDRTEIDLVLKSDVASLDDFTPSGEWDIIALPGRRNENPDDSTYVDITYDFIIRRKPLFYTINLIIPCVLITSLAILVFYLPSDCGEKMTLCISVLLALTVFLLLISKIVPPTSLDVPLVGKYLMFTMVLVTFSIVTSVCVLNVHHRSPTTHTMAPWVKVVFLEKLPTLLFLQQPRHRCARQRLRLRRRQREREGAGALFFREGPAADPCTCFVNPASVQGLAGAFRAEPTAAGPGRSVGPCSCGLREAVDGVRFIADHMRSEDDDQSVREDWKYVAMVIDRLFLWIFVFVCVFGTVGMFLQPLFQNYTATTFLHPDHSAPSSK
Procedure: (§1) Rat brain was dissected into the whole brain tissue without cortex and cerebellum and was frozen in liquid nitrogen and stored at −70° C. until use. The brain tissue was homogenized with a Tekmar Polytron (setting 40) in 20 volumes of ice-cold hypotonic buffer (2 mM HEPES, 14.4 mM NaCl, 0.15 mM KCl, 0.2 mM CaCl2 and […], pH=7.5). The homogenate was centrifuged at 25,000×g for 17 minutes at 4° C. The pellet was resuspended in 20 volumes of the same buffer, and incubated for 10 min at 37° C. The resuspension was cooled to 4° C. and then centrifuged at the above parameters. The pellet was resuspended by sonicaton and centrifuged using the same conditions. The final pellet was stored at −20° C. under 10 ml of the incubation buffer and was suspended just before incubation with radioligand.
(§2) The binding of [^3H]NIC and [^3H]MLA to probe α4β2 and α7-type neuronal nicotinic acetylcholine receptors, respectively, was determined using [^3H]NIC (67 Ci/mmol) and [^3H]MLA (60 Ci/mmol), purchased from Perkin Elmer Life Sciences, Boston, Mass., U.S.A. and American Radiolabel Chemicals, Inc., St. Louis, Mo., U.S.A. Binding was performed in duplicate, in a final volume of 250 μl of the incubation medium, containing 20 mM HEPES, 144 mM NaCl, 1.5 mM KCl, 2 mM CaCl2, and 1 mM MgSO4, pH=7.5. Reaction was initiated by the addition of 100 μL of membrane suspension to the samples containing a desired concentration of test compounds and 3 nM [^3H]NIC or 3 nM [^3H]MLA (final concentrations) and incubated for 60 min at room temperature. Total binding was measured in the absence of unlabelled ligand and nonspecific binding was determined in the presence of 10 μM cytisine, for [^3H]NIC binding, and 10 μM nicotine for [^3H]MLA. The binding reaction was terminated by dilution of samples with 3 mL of ice-cold incubation buffer followed by immediate filtration through Unifilter-96 GFB-filter plates presoaked in 0.5% polyethylenimine using a Filtermate Harvester (Perkin Elmer, Shelton, Conn., U.S.A.). Filters were rinsed five times with 350 μL of ice-cold buffer, and then filter plates were dried at 48° C. for 60 min, bottom sealed and each well filled with 40 μL of Packard Microscint-20 cocktail. After 60 min of gentle shaking, the filter plates were top sealed and radioactivity measured using a Packard TopCount NXT scintillation counter. CPMs were processed through a Packard Windows NT operating system. Protein was measured using the Bradford dye-binding procedure with bovine serum albumin as the standard.
(§3) The ability of a probe concentration of 100 nM of the tetrakis-quaternary ammonium salts to inhibit specific binding was evaluated.
(§4) ^aData are % inhibition at 100 nM concentration of analog for 3-4 independent experiments. Specific binding in the [^3H]NIC binding assay is calculated as the difference between the total binding of 3 nM [^3H]NIC and nonspecific binding in the presence of 10 μM cytisine. Specific binding for the [^3H]MLA binding assay is calculated as the difference between the total binding of 3 nM [^3H]MLA to the receptors alone and its nonspecific binding in the presence of 10 μM nicotine. Analog-induced inhibition of nicotine-evoked [^3H]DA release is calculated as a percent of that in the absence of analog.

[2] = molecular target: T2, α7-type neuronal nicotinic acetylcholine receptors (Rattus norvegicus, UniProt Q05941); test: Inhibition of [^3H]methyllycaconitine (MLA) binding to rat brain membranes; conditions: % inhibition at 100 nM analog; 3 nM [^3H]MLA; nonspecific 10 μM nicotine; 3-4 independent experiments
T2 construct: The brain tissue was homogenized with a Tekmar Polytron; from tissue; host or cells: rat brain membranes (whole brain without cortex and cerebellum)
T2 sequence (Q05941 23-502): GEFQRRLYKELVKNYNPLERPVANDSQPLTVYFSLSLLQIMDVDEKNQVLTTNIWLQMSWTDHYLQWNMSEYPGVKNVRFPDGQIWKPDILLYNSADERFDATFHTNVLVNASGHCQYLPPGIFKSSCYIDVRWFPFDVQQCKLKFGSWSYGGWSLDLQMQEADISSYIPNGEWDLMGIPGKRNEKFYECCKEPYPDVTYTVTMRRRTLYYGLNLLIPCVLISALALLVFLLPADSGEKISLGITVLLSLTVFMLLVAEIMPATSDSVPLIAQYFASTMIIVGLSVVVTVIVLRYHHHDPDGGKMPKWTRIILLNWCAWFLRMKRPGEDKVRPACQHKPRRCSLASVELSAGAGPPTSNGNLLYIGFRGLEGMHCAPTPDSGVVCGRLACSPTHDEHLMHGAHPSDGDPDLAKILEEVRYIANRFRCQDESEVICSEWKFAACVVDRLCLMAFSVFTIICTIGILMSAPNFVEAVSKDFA
Procedure: as §1, §2, §3, §4

[3] = system: rat striatal slices; test: Nicotine-evoked [^3H]dopamine release (overflow) from superfused rat striatal slices; format: cell-based; conditions: for inhibition at 0.1 µM: % inhibition at 100 nM analog, 10 μM S(-)nicotine, rat striatal slices, read-out: Inhibition of Nicotine-evoked [^3H]DA release; for IC50: Rattus norvegicus, full concentration response assay, 4-5 independent experiments in duplicate, 10 μM nicotine, read-out: IC50, inhibition of nicotine-evoked [^3H]DA release (converted)
Procedure: Rat striatal slices (500 μm thickness, 6 mg wet weight) were incubated for 30 minutes in Krebs buffer (118 mM NaCl, 4.7 mM KCl, 1.2 mM MgCl2, 1.0 mM NaH2PO4, 1.3 mM CaCl2, 11.1 mM glucose, 25 mM NaHCO3, 0.11 mM L-ascorbic acid, and 0.004 mM disodium EDTA; pH 7.4, and saturated with 95% O2/5% CO2) in a metabolic shaker at 34° C. Slices were rinsed with 15 mL of fresh buffer and incubated for an additional 30 minutes in fresh buffer containing 0.1 μM [^3H]dopamine (DA; 6 slices/3 mL). Subsequently, slices were rinsed with 15 mL of fresh buffer and each slice transferred to a superfusion chamber. Slices were superfused (0.6 mL/min) for 60 minutes with Krebs buffer containing nomifensine (10 μM) and pargyline (10 μM) and maintained at 34° C., pH 7.4, with continual aeration (95% O2/5% CO2). Two 4-minute samples (2.4 mL each) were collected to determine basal outflow of [^3H]DA. Slices were superfused for 36 min following addition of the analogs to the superfusion buffer after the collection of the second sample and nine 4-minute samples were collected. For initial probe assays, the concentration of analog was 100 nM. For concentration-response studies, the concentration of analog varied from 1 nM to 10 μM, and the effect of each concentration was determined using striatal slices obtained from an individual animal (repeated measures design). Subsequently, S(−)nicotine (10 μM) was added to the buffer and nine additional 4-minute samples were collected. At the end of the experiment, each slice was solubilized and the [^3H] content of the tissue determined.
Radioactivity in the superfusate and tissue samples was determined by liquid scintillation spectroscopy. Fractional release for tritium collected in each sample was divided by the total tritium present in the tissue at the time of sample collection and was expressed as a percentage of total tritium. Basal [^3H]outflow was calculated from the average of the tritium collected in the two […] samples just before addition of the analog. The sum of the increase in collected tritium resulting from either exposure to the test compound or exposure to S(−)nicotine in the absence and presence of the test compound equaled total [^3H]overflow. [^3H]Overflow was calculated by subtracting the [^3H]outflow during an equivalent period of prestimulation from the values in samples collected during and after drug exposure. Inasmuch as the radiolabelled compounds were not separated and identified, the tritium collected in superfusate is referred to as either [^3H]outflow or [^3H]overflow, rather than as [^3H]DA. [^3H]Overflow primarily represents [^3H]DA in the presence of nomifensine and pargyline in the superfusion buffer. […]
Analogs were also evaluated for their ability to inhibit NIC evoked [^3H]DA release. Antagonist activity was evaluated by comparing the NIC-evoked [^3H]overflow in the absence and presence of the analogs (see Table 1). […] Data are expressed as M±SEM. Control represents absence of compound. N=4/analog, *p<0.05
as §4
^bIC50 from full concentration response assay; data from 4-5 independent experiments, each performed in duplicate.

Row | Structure (SMILES) | Inhibition of [^3H]Nicotine binding [1] [%] | Inhibition of [^3H]MLA binding [2] [%] | inhibition at 0.1 µM [3] [%] | IC50 [3] [µM]
1 | Cc1cc(C)c[n+](CCCC#Cc2cc(C#CCCC[n+]3cc(C)cc(C)c3)c(C#CCCC[n+]3cc(C)cc(C)c3)cc2C#CCCC[n+]2cc(C)cc(C)c2)c1.[Br-].[Br-].[Br-].[Br-] | 0 ± 05 | 3.9 ± 3.9 | 12 ± 5 | 
2 | Cc1cc[n+](CCCC#Cc2cc(C#CCCC[n+]3ccc(C)cc3)c(C#CCCC[n+]3ccc(C)cc3)cc2C#CCCC[n+]2ccc(C)cc2)cc1.[Br-].[Br-].[Br-].[Br-] | 24 ± 5.5 | 3.0 ± 3.0 | 35 ± 14 | 
3 | OCCCc1ccc[n+](CCCC#Cc2cc(C#CCCC[n+]3cccc(CCCO)c3)c(C#CCCC[n+]3cccc(CCCO)c3)cc2C#CCCC[n+]2cccc(CCCO)c2)c1.[Br-].[Br-].[Br-].[Br-] | 0 ± 0 | 5.7 ± 5.7 | 41 ± 15 | 
4 | Cc1cc[n+](CCCC#Cc2cc(C#CCCC[n+]3ccc(C)c(C)c3)c(C#CCCC[n+]3ccc(C)c(C)c3)cc2C#CCCC[n+]2ccc(C)c(C)c2)cc1C.[Br-].[Br-].[Br-].[Br-] | 9.8 ± 1.2 | 0.6 ± 0.6 | 17 ± 6 | 
5 | C(#Cc1cc(C#CCCC[n+]2ccc3ccccc3c2)c(C#CCCC[n+]2ccc3ccccc3c2)cc1C#CCCC[n+]1ccc2ccccc2c1)CCC[n+]1ccc2ccccc2c1.[Br-].[Br-].[Br-].[Br-] | 0 ± 0 | 4.9 ± 3.8 | 39 ± 17 | 
6 | C(#Cc1cc(C#CCCC[n+]2cccc(-c3ccccc3)c2)c(C#CCCC[n+]2cccc(-c3ccccc3)c2)cc1C#CCCC[n+]1cccc(-c2ccccc2)c1)CCC[n+]1cccc(-c2ccccc2)c1.[Br-].[Br-].[Br-].[Br-] | 0.3 ± 0.3 | 53 ± 0.8 | 37 ± 15 | 
7 | CN1CCCC1c1ccc[n+](CCCC#Cc2cc(C#CCCC[n+]3cccc(C4CCCN4C)c3)c(C#CCCC[n+]3cccc(C4CCCN4C)c3)cc2C#CCCC[n+]2cccc(C3CCCN3C)c2)c1.[Br-].[Br-].[Br-].[Br-] (stereo not drawn) | 38 ± 7.4 | 15 ± 2.0 | 31 ± 13 | 
8 | C(#Cc1cc(C#CCCC[n+]2cccc(Cc3ccccc3)c2)c(C#CCCC[n+]2cccc(Cc3ccccc3)c2)cc1C#CCCC[n+]1cccc(Cc2ccccc2)c1)CCC[n+]1cccc(Cc2ccccc2)c1.[Br-].[Br-].[Br-].[Br-] | 2.9 ± 2.9 | 53 ± 3.5 | 17 ± 17 | 
9 | C(#Cc1cc(C#CCCC[n+]2ccc3c(c2)CCCC3)c(C#CCCC[n+]2ccc3c(c2)CCCC3)cc1C#CCCC[n+]1ccc2c(c1)CCCC2)CCC[n+]1ccc2c(c1)CCCC2.[Br-].[Br-].[Br-].[Br-] | 9.7 ± 9.7 | 17 ± 8.9 | 24 ± 14 | 
10 | Cc1ccc[n+](CCCC#Cc2cc(C#CCCC[n+]3cccc(C)c3)c(C#CCCC[n+]3cccc(C)c3)cc2C#CCCC[n+]2cccc(C)c2)c1.[Br-].[Br-].[Br-].[Br-] | 11 ± 11 | 18 ± 7.8 | 16 ± 13 | 
11 | Cc1cc(C)c[n+](CCCCCc2cc(CCCCC[n+]3cc(C)cc(C)c3)c(CCCCC[n+]3cc(C)cc(C)c3)cc2CCCCC[n+]2cc(C)cc(C)c2)c1.[Br-].[Br-].[Br-].[Br-] | 3.7 ± 3.7 | 15 ± 8 | 45 ± 14 | 
12 | OCCCc1ccc[n+](CCCCCc2cc(CCCCC[n+]3cccc(CCCO)c3)c(CCCCC[n+]3cccc(CCCO)c3)cc2CCCCC[n+]2cccc(CCCO)c2)c1.[Br-].[Br-].[Br-].[Br-] | 9.6 ± 5.2 | 20 ± 13 | 64 ± 15 | 0.00338
13 | Cc1ccc[n+](CCCCCc2cc(CCCCC[n+]3cccc(C)c3)c(CCCCC[n+]3cccc(C)c3)cc2CCCCC[n+]2cccc(C)c2)c1.[Br-].[Br-].[Br-].[Br-] | 12 ± 4.4 | 12 ± 6.9 | 8 ± 4 | 
14 | CN1CCCC1c1ccc[n+](CCCCCc2cc(CCCCC[n+]3cccc(C4CCCN4C)c3)c(CCCCC[n+]3cccc(C4CCCN4C)c3)cc2CCCCC[n+]2cccc(C3CCCN3C)c2)c1.[Br-].[Br-].[Br-].[Br-] (stereo not drawn) | 7.4 ± 4.7 | 26 ± 14 | 43 ± 21 | 
15 | [Br-].[Br-].[Br-].[Br-].c1ccc(Cc2ccc[n+](CCCCCc3cc(CCCCC[n+]4cccc(Cc5ccccc5)c4)c(CCCCC[n+]4cccc(Cc5ccccc5)c4)cc3CCCCC[n+]3cccc(Cc4ccccc4)c3)c2)cc1 | 13 ± 3.3 | 16 ± 8 | 54 ± 10 | 0.028
16 | [Br-].[Br-].[Br-].[Br-].c1c(CCCCC[n+]2ccc3c(c2)CCCC3)c(CCCCC[n+]2ccc3c(c2)CCCC3)cc(CCCCC[n+]2ccc3c(c2)CCCC3)c1CCCCC[n+]1ccc2c(c1)CCCC2 | 0.9 ± 0.9 | 27 ± 15 | 27 ± 2 | 0.056
17 | [Br-].[Br-].[Br-].[Br-].c1ccc(-c2ccc[n+](CCCCCc3cc(CCCCC[n+]4cccc(-c5ccccc5)c4)c(CCCCC[n+]4cccc(-c5ccccc5)c4)cc3CCCCC[n+]3cccc(-c4ccccc4)c3)c2)cc1 | 6.6 ± 4.5 | 33 ± 17 | 19 ± 15 | 
